Source: patent US20120122820A1, “PRODRUGS AND THE USE THEREOF” (Bayer Schering Pharma Aktiengesellschaft, priority 2007, published 2012)
Values after ≈ are worked out from the molar mass of the structure shown. Counter-ions that a name gives are not always drawn.

How the values were obtained:
[1] = Determination of the solubility (24 h shaking at room temperature, ultracentrifugation, HPLC); format: physicochemical; details: thermodynamic from solid
Protocol: The test substance is suspended in water or dilute hydrochloric acid (pH 4) [Examples 1-21] or in 5% strength aqueous dextrose solution [Examples 22-40]. This suspension is shaken at room temperature for 24 h. After ultracentrifugation at 224 000 g for 30 min, the supernatant is diluted with DMSO and analyzed by HPLC. A two-point calibration plot of the test compound in DMSO is used for quantification.
Agilent 1100 with DAD (G1315A), quat. pump (G1311A), autosampler CTC HTS PAL, degasser (G1322A) and column thermostat (G1316A); column: Phenomenex Gemini C18, 5 μm, 50 mm×2 mm; temperature: 40° C.; eluent A: water/phosphoric acid pH 2, eluent B: acetonitrile; flow rate: 0.7 ml/min; gradient: 0-0.5 min 85% A, 15% B; ramp 0.5-3 min 10% A, 90% B; 3-3.5 min 10% A, 90% B; ramp 3.5-4 min 85% A, 15% B; 4-5 min 85% A, 15% B.
Agilent 1100 with DAD (G1315A), quat. pump (G1311A), autosampler CTC HTS PAL, degasser (G1322A) and column thermostat (G1316A); column: VDSoptilab Kromasil 100 C18, 3.5 μm, 60 mm×2.1 mm; temperature: 30° C.; eluent A: water+5 ml of perchloric acid/liter, eluent B: acetonitrile; flow rate: 0.75 ml/min; gradient: 0-0.5 min 98% A, 2% B; ramp 0.5-4.5 min 10% A, 90% B; 4.5-6 min 10% A, 90% B; ramp 6.5-6.7 min 98% A, 2% B; 6.7-7.5 min 98% A, 2% B.

[2] = Stability in buffer at various pH values; format: physicochemical
Protocol: 0.3 mg of the test substance is weighed into a 2 ml HPLC vial and 0.5 ml of acetonitrile or acetonitrile/DMSO (9:1) is added. The substance is dissolved by putting the sample vessel in an ultrasonic bath for about 10 seconds. Then 0.5 ml of the respective (buffer) solution is added, and the sample is again treated in the ultrasonic bath.
• pH 4: 1 liter of Millipore water is adjusted to pH 4.0 with 1 N hydrochloric acid; • pH 5: 0.096 mol of citric acid and 0.2 mol of sodium hydroxide ad 1 liter of water; • pH 7.4: 90.0 g of sodium chloride, 13.61 g of potassium dihydrogen phosphate and 83.35 g of 1 N sodium hydroxide solution are made up to 1 liter with water; this solution is then further diluted 1:10 with Millipore water. • pH 8: 0.013 mol of borax and 0.021 mol of hydrochloric acid ad 1 liter of water.
5 μl portions of the sample solution are analyzed by HPLC for their content of unchanged test substance, and of parent substance (A) produced, every hour over a period of 24 hours at 37° C. The percentage areas of the appropriate peaks are used for quantification.
HPLC method for Examples 1-21:
Agilent 1100 with DAD (G1314A), binary pump (G1312A), autosampler (G1329A), column oven (G1316A), thermostat (G1330A); column: Kromasil 100 C18, 60 mm×2.1 mm, 3.5 μm; column temperature: 30° C.; eluent A: water+5 ml of perchloric acid/liter, eluent B: acetonitrile; gradient: 0-1.0 min 98% A, 2% B; 1.0-9.0 min 2% A, 98% B; 9.0-13.0 min 2% A, 98% B; 13.0-13.5 min 98% A, 2% B; 13.5-15.0 min 98% A, 2% B; flow rate: 0.75 ml/min; UV detection: 210 nm.
HPLC method for Examples 22-40:
The ratios of the peak areas (F) at the respective time points in relation to the peak areas at the starting time are shown in Table 3 for representative exemplary embodiments: […]

[3] = aqueous buffer, dilute hydrochloric acid (pH 4)
[4] = saline or isotonic, 5% strength aqueous dextrose solution

Compound: N#Cc1c(N)nc(SCc2csc(-c3ccc(Cl)cc3)n2)c(C#N)c1-c1ccc(OCCOC(=O)CN)cc1 [Example 6, 2-{4-[2-Amino-6-({[2-(4-chlorophenyl)-1,3-thiazol-4-yl]methyl}thio)-3,5-dicyanopyridin-4-yl]-phenoxy}ethyl glycinate dihydrochloride]
- solubility at 24 h [1, 3]: 90 µg/mL

Compound: N#Cc1c(N)nc(SCc2csc(-c3ccc(Cl)cc3)n2)c(C#N)c1-c1ccc(OCCOC(=O)[C@@H]2CCCN2)cc1 [Example 9, 2-{4-[2-Amino-6-({[2-(4-chlorophenyl)-1,3-thiazol-4-yl]methyl}thio)-3,5-dicyanopyridin-4-yl]-phenoxy}ethyl L-prolinate hydrochloride]
- solubility at 24 h [1, 3]: 50 µg/mL

Compound: Cc1ccc(S(=O)(=O)[O-])cc1.N#Cc1c(N)nc(SCc2csc(-c3ccc(Cl)cc3)n2)c(C#N)c1-c1ccc(OCCOC(=O)[C@@H]2CCC[NH2+]2)cc1 [Example 10, 2-{4-[2-Amino-6-({[2-(4-chlorophenyl)-1,3-thiazol-4-yl]methyl}thio)-3,5-dicyanopyridin-4-yl]-phenoxy}ethyl L-prolinate p-toluenesulfonic acid salt]
- solubility at 24 h [1, 3]: 8 µg/mL

Compound: N#Cc1c(N)nc(SCc2csc(-c3ccc(Cl)cc3)n2)c(C#N)c1-c1ccc(OCCOC(=O)[C@@H](N)CO)cc1 [Example 11, 2-{4-[2-Amino-6-({[2-(4-chlorophenyl)-1,3-thiazol-4-yl]methyl}thio)-3,5-dicyanopyridin-4-yl]-phenoxy}ethyl L-serinate hydrochloride]
- solubility at 24 h [1, 3]: 70 µg/mL

Compound: N#Cc1c(N)nc(SCc2csc(-c3ccc(Cl)cc3)n2)c(C#N)c1-c1ccc(OCCOC(=O)[C@@H](N)CCCCN)cc1 [Example 14, 2-{4-[2-Amino-6-({[2-(4-chlorophenyl)-1,3-thiazol-4-yl]methyl}thio)-3,5-dicyanopyridin-4-yl]-phenoxy}ethyl L-lysinate dihydrochloride]
- % test substance after 4 h [F(t = 4 h) × 100/F(t = 0 h)] ([2]; pH 4, 37° C.): 100%
- % test substance after 24 h [F(t = 24 h) × 100/F(t = 0 h)] ([2]; pH 4, 37° C.): 100%
- % test substance after 4 h [F(t = 4 h) × 100/F(t = 0 h)] ([2]; pH 8, 37° C.): 96%
- % test substance after 24 h [F(t = 24 h) × 100/F(t = 0 h)] ([2]; pH 8, 37° C.): 76%

Compound: N#Cc1c(N)nc(SCc2csc(-c3ccc(Cl)cc3)n2)c(C#N)c1-c1ccc(OCCOC(=O)[C@@H](N)Cc2ccccc2)cc1 [Example 16, 2-{4-[2-Amino-6-({[2-(4-chlorophenyl)-1,3-thiazol-4-yl]methyl}thio)-3,5-dicyanopyridin-4-yl]-phenoxy}ethyl L-phenylalaninate hydrochloride]
- % test substance after 4 h [F(t = 4 h) × 100/F(t = 0 h)] ([2]; pH 4, 37° C.): 100%
- % test substance after 24 h [F(t = 24 h) × 100/F(t = 0 h)] ([2]; pH 4, 37° C.): 100%
- % test substance after 4 h [F(t = 4 h) × 100/F(t = 0 h)] ([2]; pH 8, 37° C.): 100%
- % test substance after 24 h [F(t = 24 h) × 100/F(t = 0 h)] ([2]; pH 8, 37° C.): 100%

Compound: CS(=O)(=O)O.N#Cc1c(N)nc(SCc2csc(-c3ccc(Cl)cc3)n2)c(C#N)c1-c1ccc(OCCOC(=O)[C@@H](N)Cc2ccccc2)cc1 [Example 18, 2-{4-[2-Amino-6-({[2-(4-chlorophenyl)-1,3-thiazol-4-yl]methyl}thio)-3,5-dicyanopyridin-4-yl]-phenoxy}ethyl L-phenylalaninate methanesulfonic acid salt]
- solubility at 24 h [1, 3]: 60 µg/mL

Compound: CC(C)[C@H](N)C(=O)OCCOc1ccc(-c2c(C#N)c(N)nc(SCc3csc(-c4ccc(Cl)cc4)n3)c2C#N)cc1 [Example 23, 2-{4-[2-Amino-6-({[2-(4-chlorophenyl)-1,3-thiazol-4-yl]methyl}thio)-3,5-dicyanopyridin-4-yl]-phenoxy}ethyl L-valinate dihydrochloride]
- % test substance after 4 h [F(t = 4 h) × 100/F(t = 0 h)] ([2]; pH 4, 37° C.): 100%
- % test substance after 24 h [F(t = 24 h) × 100/F(t = 0 h)] ([2]; pH 4, 37° C.): 99%
- % test substance after 4 h [F(t = 4 h) × 100/F(t = 0 h)] ([2]; pH 7.4, 37° C.): 100%
- % test substance after 24 h [F(t = 24 h) × 100/F(t = 0 h)] ([2]; pH 7.4, 37° C.): 96%

Compound: N#Cc1c(N)nc(SCc2csc(-c3ccc(Cl)cc3)n2)c(C#N)c1-c1ccc(OCCOC(=O)[C@@H](N)CCN)cc1 [Example 24, 2-{4-[2-Amino-6-({[2-(4-chlorophenyl)-1,3-thiazol-4-yl]methyl}thio)-3,5-dicyanopyridin-4-yl]-phenoxy}ethyl (2S)-2,4-diaminobutanoate dihydrochloride]
- % test substance after 4 h [F(t = 4 h) × 100/F(t = 0 h)] ([2]; pH 4, 37° C.): 100%
- % test substance after 24 h [F(t = 24 h) × 100/F(t = 0 h)] ([2]; pH 4, 37° C.): 99%
- % test substance after 4 h [F(t = 4 h) × 100/F(t = 0 h)] ([2]; pH 5, 37° C.): 96%
- % test substance after 24 h [F(t = 24 h) × 100/F(t = 0 h)] ([2]; pH 5, 37° C.): 74%
- solubility at 24 h [1, 4]: > 500 µg/mL

Compound: N#Cc1c(NC(=O)CCCN)nc(SCc2csc(-c3ccc(Cl)cc3)n2)c(C#N)c1-c1ccc(OCCOC(=O)CCCN)cc1 [Example 25, 2-(4-{2-[(4-Aminobutanoyl)amino]-6-({[2-(4-chlorophenyl)-1,3-thiazol-4-yl]methyl}thio)-3,5-di-cyanopyridin-4-yl}phenoxy)ethyl 4-aminobutanoate dihydrochloride]
- % test substance after 4 h [F(t = 4 h) × 100/F(t = 0 h)] ([2]; pH 4, 37° C.): 100%
- % test substance after 24 h [F(t = 24 h) × 100/F(t = 0 h)] ([2]; pH 4, 37° C.): 100%
- % test substance after 4 h [F(t = 4 h) × 100/F(t = 0 h)] ([2]; pH 7.4, 37° C.): 41%
- % test substance after 24 h [F(t = 24 h) × 100/F(t = 0 h)] ([2]; pH 7.4, 37° C.): 4%
- solubility at 24 h [1, 4]: 730 µg/mL

Compound: N#Cc1c(N)nc(SCc2csc(-c3ccc(Cl)cc3)n2)c(C#N)c1-c1ccc(OCCOC(=O)CCC(=O)O)cc1 [Example 28, 2-Hydroxy-N,N,N-trimethylethanaminium 4-(2-{4-[2-amino-6-({[2-(4-chlorophenyl)-1,3-thiazol-4-yl]methyl}thio)-3,5-dicyanopyridin-4-yl]phenoxy}ethoxy) 4-oxobutanoate]
- % test substance after 4 h [F(t = 4 h) × 100/F(t = 0 h)] ([2]; pH 4, 37° C.): 100%
- % test substance after 24 h [F(t = 24 h) × 100/F(t = 0 h)] ([2]; pH 4, 37° C.): 100%
- % test substance after 4 h [F(t = 4 h) × 100/F(t = 0 h)] ([2]; pH 7.4, 37° C.): 100%
- % test substance after 24 h [F(t = 24 h) × 100/F(t = 0 h)] ([2]; pH 7.4, 37° C.): 100%

Compound: N#Cc1c(N)nc(SCc2csc(-c3ccc(Cl)cc3)n2)c(C#N)c1-c1ccc(OCCOC(=O)/C=C\C(=O)O)cc1 [Example 31, 2-Hydroxy-N,N,N-trimethylethanaminium (2Z)-4-(2-{4-[2-amino-6-({[2-(4-chlorophenyl)-1,3-thiazol-4-yl]methyl}thio)-3,5-dicyanopyridin-4-yl]phenoxy}ethoxy)-4-oxobut-2-enoate]
- solubility at 24 h [1, 4]: 4 µg/mL (≈ 6.47 µM)

Compound: N#Cc1c(N)nc(SCc2csc(-c3ccc(Cl)cc3)n2)c(C#N)c1-c1ccc(OCCOC(=O)[C@@H](N)Cc2c[nH]cn2)cc1 [Example 33, 2-{4-[2-Amino-6-({[2-(4-chlorophenyl)-1,3-thiazol-4-yl]methyl}thio)-3,5-dicyanopyridin-4-yl]-phenoxy}ethyl L-histidinate dihydrochloride]
- solubility at 24 h [1, 4]: 195 µg/mL

Compound: CN(C)CC(=O)Nc1nc(SCc2csc(-c3ccc(Cl)cc3)n2)c(C#N)c(-c2ccc(OCCOC(=O)CN(C)C)cc2)c1C#N [Example 34, 2-(4-{2-({[2-(4-Chlorophenyl)-1,3-thiazol-4-yl]methyl}thio)-3,5-dicyano-6-[(N,N-dimethylglycyl)-amino]pyridin-4-yl}phenoxy)ethyl N,N-dimethylglycinate]
- % test substance after 4 h [F(t = 4 h) × 100/F(t = 0 h)] ([2]; pH 4, 37° C.): 100%
- % test substance after 24 h [F(t = 24 h) × 100/F(t = 0 h)] ([2]; pH 4, 37° C.): 97%
- % test substance after 4 h [F(t = 4 h) × 100/F(t = 0 h)] ([2]; pH 7.4, 37° C.): 100%
- % test substance after 24 h [F(t = 24 h) × 100/F(t = 0 h)] ([2]; pH 7.4, 37° C.): 97%

Compound: CN(C)CC(=O)Nc1nc(SCc2csc(-c3ccc(Cl)cc3)n2)c(C#N)c(-c2ccc(OCCOC(=O)CN(C)C)cc2)c1C#N [Example 35, 2-(4-{2-({[2-(4-Chlorophenyl)-1,3-thiazol-4-yl]methyl}thio)-3,5-dicyano-6-[(N,N-dimethylglycyl)-amino]pyridin-4-yl}phenoxy)ethyl N,N-dimethylglycinate dihydrochloride]
- % test substance after 24 h [F(t = 24 h) × 100/F(t = 0 h)] ([2]; pH 4, 37° C., dihydrochloride): 100%
- % test substance after 24 h [F(t = 24 h) × 100/F(t = 0 h)] ([2]; pH 7.4, 37° C., dihydrochloride): 98%
